Assay results taken from patent US5268374A, “Non-peptide renin inhibitors” (Abbott Laboratories, priority 1991, dated 1993).

target: T1, human renal renin (Homo sapiens, UniProt P00797); experiment: Inhibition of human renal renin in vitro (angiotensin I formation by radioimmunoassay); assay type: biochemical; details: not given
T1 construct: from tissue; host or cells: human kidney (read from the word 'renal'; no preparation is printed)
T1 sequence (P00797 67-406): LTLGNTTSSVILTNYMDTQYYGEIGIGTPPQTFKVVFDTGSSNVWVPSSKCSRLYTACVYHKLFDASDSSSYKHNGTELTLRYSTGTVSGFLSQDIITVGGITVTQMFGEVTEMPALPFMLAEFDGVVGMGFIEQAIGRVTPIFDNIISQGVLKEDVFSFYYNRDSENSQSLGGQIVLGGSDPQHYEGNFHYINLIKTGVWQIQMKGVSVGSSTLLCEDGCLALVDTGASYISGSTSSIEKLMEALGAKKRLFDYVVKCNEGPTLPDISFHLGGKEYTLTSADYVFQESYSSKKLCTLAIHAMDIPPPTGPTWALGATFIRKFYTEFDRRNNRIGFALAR

Row | Structure (SMILES) | IC50 [nM]
1 | CCCC[C@H](N[C@@H](Cc1ccccc1)C(=O)N1CCC(OCOC)CC1)C(=O)N[C@@H](CC1CCCCC1)[C@@H](O)C[C@H](C(=O)NCCCn1ccnc1)C(C)C [Example 119] | 3

same assay, conditions: human renal renin, 37 degrees C, pH 6.0; read-out: IC50

Row | IC50 [nM] | Structure (SMILES)
2 | 9 | CCCC[C@H](N[C@@H](Cc1ccccc1)C(=O)N1CCOCC1)C(=O)N[C@@H](CC1CCCCC1)[C@@H](O)[C@@H](O)CC(C)C [Example 69, N-(1(S)-(4-Morpholinylcarbonyl)-2-phenylethyl)-L-norleucyl Amide of 2(S)-Amino-1-cyclohexyl-3(R),4(S)-dihydroxy-6-methylheptane]
3 | 5.5 | CC(C)C[C@H](O)[C@H](O)[C@H](CC1CCCCC1)NC(=O)[C@H](C)O[C@@H](Cc1ccccc1)C(=O)N1CCC1 [Example 87, 2(S)-(1(S)-(N-Azetidinylcarbonyl)-2-phenylethoxy)propionic acid Amide of 2(S)-Amino-1-cyclohexyl-3(R),4(S)-dihydroxy-6-methylheptane]
4 | 12 | CC(C)C[C@H](O)[C@H](O)[C@H](CC1CCCCC1)NC(=O)[C@H](C)O[C@@H](Cc1ccccc1)C(=O)N1CCCC1 [Example 88, 2(S)-(1(S)-(N-Pyrolidinylcarbonyl)-2-phenylethoxy)propionic acid Amide of 2(S)-Amino-1-cyclohexyl-3(R),4(S)-dihydroxy-6-methylheptane]
5 | 15 | CC(C)C[C@H](O)[C@H](O)[C@H](CC1CCCCC1)NC(=O)[C@H](C)O[C@@H](Cc1ccccc1)C(=O)N1CCCCC1 [Example 89, 2(S)-(1(S)-(N-Piperidinylcarbonyl)-2-phenylethoxy)propionic acid Amide of 2(S)-Amino-1-cyclohexyl-3(R),4(S)-dihydroxy-6-methylheptane]
6 | 3.9 | CCCCNC(=O)[C@@H](C[C@H](O)[C@H](CC1CCCCC1)NC(=O)[C@H](C)O[C@@H](Cc1ccccc1)C(=O)N1CCOCC1)C(C)C [Example 91, 2(S)-(1(S)-(4-Morpholinylcarbonyl)-2-phenylethoxy)propionic acid Amide of 2(S)-Amino-1-cyclohexyl-3(S)-hydroxy-5(S)-n-butylcarbamoyl-6-methylheptane]
7 | 1.1 | CCCC[C@H](O[C@@H](Cc1ccccc1)C(=O)N1CCC(OCOC)CC1)C(=O)N[C@@H](CC1CCCCC1)[C@@H](O)[C@@H](O)CC(C)C [Example 93, 2(S)-(1(S)-(4-(Methoxymethoxy)piperidin-1-yl-carbonyl)-2-phenylethoxy)hexanoic acid Amide of 2(S)-Amino-1-cyclohexyl-3(R),4(S)-dihydroxy-6-methylheptane]
8 | 1.3 | COCOC1CCN(C(=O)[C@H](Cc2ccccc2)O[C@@H](C)C(=O)N[C@@H](CC2CCCCC2)[C@@H](O)[C@@H](O)CC(C)C)CC1 [Example 94, 2(S)-(1(S)-(4-(Methoxymethoxy)piperidinyl-1-yl-carbonyl)-2-phenylethoxy)propionic acid Amide of 2(S)-Amino-1-cyclohexyl-3(R),4(S)-dihydroxy-6-methylheptane]
9 | 1.5 | CCCCNC(=O)[C@@H](C[C@H](O)[C@H](CC1CCCCC1)NC(=O)[C@H](CCCC)O[C@@H](Cc1ccccc1)C(=O)N1CCC(OCOC)CC1)C(C)C [Example 96, 2(S)-(1(S)-(4-(Methoxymethoxy)piperidin-1-yl-carbonyl)-2-phenylethoxy)hexanoic acid Amide of 2(S)-Amino-1-cyclohexyl-3(S)-hydroxy-5(S)-n-butylcarbamoyl-6-methylheptane]
10 | 0.87 | CCCC[C@H](O[C@@H](Cc1ccccc1)C(=O)N1CCC(OCOC)CC1)C(=O)N[C@@H](CC1CCCCC1)[C@@H](O)[C@@H]1CN(CC)C(=O)O1 [Example 108, 2(S)-(1(S)-(4-(Methoxymethoxy)piperidin-1-yl-carbonyl)-2-phenylethoxy)hexanoic acid Amide of (2's,1'R,5S)-3-Ethyl-5-(1'-hydroxy-2'-amino-3'-cyclohexylpropyl)oxazolidin-2-one]
11 | 1.3 | CCCC[C@H](O[C@@H](Cc1ccccc1)C(=O)N1CCC(OCOC)CC1)C(=O)N[C@@H](CC1CCCCC1)[C@@H](O)C[C@H](C(=O)NCCCn1ccnc1)C(C)C [Example 116, 2(S)-(1(S)-(4-(Methoxymethoxy)piperidin-1-yl)carbonyl-2-phenyl)ethoxyhexanoic acid amide of 3-(1-imidazolyl)propyl 5(S)-amino-6-cyclohexyl-4(S)-hydroxy-2(S)-isopropylhexanamide]
12 | 2.5 | CCCC[C@H](O[C@@H](Cc1ccccc1)C(=O)N1CCC(OCOC)CC1)C(=O)N[C@@H](CC1CCCCC1)[C@@H](O)C[C@H](C(=O)NCCCN(C)C)C(C)C [Example 117, 2(S)-(1(S)-(4-(Methoxymethoxy)piperidin-1-yl)carbonyl-2-phenyl)ethoxyhexanoic acid amide of 3-(dimethylamino)propyl 5(S)-amino-6-cyclohexyl-4(S)-hydroxy-2(S)-isopropylhexanamide]
13 | 2.5 | CCCC[C@H](O[C@@H](Cc1ccccc1)C(=O)N1CCC(OCOC)CC1)C(=O)N[C@@H](CC1CCCCC1)[C@@H](O)CN(C)S(=O)(=O)NC [Example 122, 2(S)-(1(S)-(4-(Methoxymethoxy)piperidin-1-yl)carbonyl-2-phenyl)ethoxyhexanoic acid amide of (2S,3S)-3-amino-4-cyclohexyl-2-hydroxy-1-(methyl(methylsulfamoyl)amino)butane]
14 | 2.7 | CCCC[C@H](O[C@@H](Cc1ccccc1)C(=O)N1CCC(OCOC)CC1)C(=O)N[C@@H](CC1CCCCC1)[C@@H](O)C[C@H](NC(=O)OCCN(C)C)C(C)C [Example 129]
15 | 1.4 | CCCC[C@H](O[C@@H](Cc1ccccc1)C(=O)N1CCC(OCOC)CC1)C(=O)N[C@@H](CC1CCCCC1)[C@@H](O)C[C@H](NC(=O)OCCN1CCOCC1)C(C)C [Example 130]
16 | 0.88 | CCCC[C@H](O[C@@H](Cc1ccccc1)C(=O)N1CCC(OCOC)CC1)C(=O)N[C@@H](CC1CCCCC1)[C@@H](O)C[C@H](NC(=O)OCCc1ccccn1)C(C)C [Example 131]
17 | 3.2 | CCCCC(=O)N[C@@H](C[C@H](O)[C@H](CC1CCCCC1)NC(=O)[C@H](CCCC)O[C@@H](Cc1ccccc1)C(=O)N1CCC(OCOC)CC1)C(C)C [Example 132, 2(S)-1(S)-4-(Methoxymethoxy)piperidin-1-yl)carbonyl-2-phenyl)ethoxyhexanoicacid amide of 2(S)-amino-1-cyclohexyl-5(S)-((2-(pentanoyl)amino-3(S)-hydroxy-6-methylheptane]
18 | 1.4 | CCCC[C@H](O[C@@H](Cc1ccccc1)C(=O)N1CCC(OCOC)CC1)C(=O)N[C@@H](CC1CCCCC1)[C@@H](O)C[C@H](C(=O)NCCC[N+](C)(C)[O-])C(C)C [Example 136]
19 | 2.7 | CCCC[C@H](O[C@@H](Cc1ccccc1)C(=O)N1CCC(OCOC)CC1)C(=O)N[C@@H](CC1CCCCC1)[C@@H](O)[C@@H](O)CN(C)OC [Example 139]
20 | 1.3 | CCCC[C@H](O[C@@H](Cc1ccccc1)C(=O)N1CCC(OCOC)CC1)C(=O)N[C@@H](CC1CCCCC1)[C@@H](O)CN(C(C)C)S(=O)(=O)NC [Example 142, 2(S)-(1(S)-(4-(Methoxymethoxy)piperidin-1-yl)carbonyl-2-phenyl)ethoxyhexanoic acid amide of (2S,3S)-3-amino-4-cyclohexyl-2-hydroxy-1-(isopropyl(methylsulfamoyl)amino)butane]
21 | 4.6 | CCCC[C@H](O[C@@H](Cc1ccccc1)C(=O)N1CCC(OCOC)CC1)C(=O)N[C@@H](CC1CCCCC1)[C@@H](O)C(F)(F)[C@H](O)C(C)C [Example 179]
